The text below walks through data of PubChem BioAssay (NCI).

Molecules are shown by their SMILES.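 Cells were grown in 96-well plates and exposed to each compound for 48 hours at five concentrations; endpoints were interpolated linearly between bracketing concentrations, or set to the highest concentration if not reached. GI50: concentration for 50% inhibition of growth. TGI: concentration producing complete growth inhibition.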

Some test systems named below: LOX IMVI melanoma; SK-MEL-5 melanoma; OVCAR-4 ovarian; IGROV1 ovarian; SK-MEL-2 melanoma; SF-539 CNS; M14 melanoma; HCC-2998 colon; HCT-15 colon; SNB-75 CNS.
Holding throughout (experiment): growth of human tumour cells (NCI), 48 h

With `COc1cc(CNC(=O)/C=C/C=C/c2ccc3c(c2)OCO3)ccc1OCc1cn(-c2ccc(Cl)c(Cl)c2)nn1`, the GI50 in the assay with LOX IMVI melanoma was 1.78 µM; in the assay with SK-MEL-5 melanoma, 1.77 µM; in the assay on OVCAR-4 ovarian, 1.09 µM; in the assay with IGROV1 ovarian, 1.52 µM; with SK-MEL-2 melanoma it was 1.74 µM; in the assay with SF-539 CNS, 3.26 µM. Moreover, the GI50 with M14 melanoma is 0.982 µM; with HCC-2998 colon, 2.1 µM; in the assay on HCT-15 colon, 0.519 µM; in the assay on SNB-75 CNS, 1.94 µM. The TGI in the assay on LOX IMVI melanoma was found to be 3.96 µM; in the assay on SK-MEL-5 melanoma, 3.69 µM; in the assay with OVCAR-4 ovarian it was 2.72 µM; in the assay on IGROV1 ovarian, 3.75 µM; with SK-MEL-2 melanoma it was 3.86 µM; in the assay on SF-539 CNS, 12.3 µM. Also, the TGI amounted to 2.39 µM with M14 melanoma, 4.74 µM with HCC-2998 colon, 2.5 µM in the assay on HCT-15 colon and 5.99 µM in the assay with SNB-75 CNS.
`COC(=O)CCC(NC(=S)N/N=C(\C)c1ccccn1)C(=O)OC` (stereo not given): the TGI with LOX IMVI melanoma, in the assay on SK-MEL-5 melanoma, in the assay with OVCAR-4 ovarian, in the assay with IGROV1 ovarian, in the assay with SK-MEL-2 melanoma and in the assay with SF-539 CNS was above 100 µM each time. Further, the TGI in the assay on M14 melanoma, in the assay on HCC-2998 colon, in the assay on HCT-15 colon and in the assay on SNB-75 CNS was above 100 µM each time.
For `Cc1c2ccccc2c(C)c2c3c(ccc12)C(=O)C=CC3=O`, the TGI in the assay with LOX IMVI melanoma is above 63.4 µM; with SK-MEL-5 melanoma it was above 79.3 µM; in the assay with OVCAR-4 ovarian, 39.4 µM; with IGROV1 ovarian, 55.5 µM; in the assay with SK-MEL-2 melanoma, above 84.6 µM; in the assay on SF-539 CNS, above 100 µM. Also, the TGI in the assay with M14 melanoma was above 81.2 µM; with HCC-2998 colon it was above 100 µM; in the assay on HCT-15 colon, 42.4 µM; in the assay on SNB-75 CNS, above 100 µM.
Regarding `CCCNc1nc(N(C)O)nc(N(C)O)n1`, the GI50 in the assay on LOX IMVI melanoma is 1.31 µM; with SK-MEL-5 melanoma, 1.6 µM; in the assay with OVCAR-4 ovarian, 2.48 µM; in the assay on IGROV1 ovarian, 2.13 µM; with SK-MEL-2 melanoma, 2.59 µM; with SF-539 CNS, 2.51 µM. For the same compound, the GI50 in the assay with M14 melanoma is 2.05 µM; with HCC-2998 colon it was 3.04 µM; in the assay on HCT-15 colon, 0.504 µM; with SNB-75 CNS, 16.4 µM. Besides, the TGI is above 100 µM in the assay with LOX IMVI melanoma; 6.61 µM with SK-MEL-5 melanoma; above 100 µM with OVCAR-4 ovarian; 14.6 µM in the assay with IGROV1 ovarian; 7.76 µM with SK-MEL-2 melanoma; above 54.4 µM in the assay with SF-539 CNS. In addition, the TGI is above 29.4 µM with M14 melanoma, above 100 µM in the assay with HCC-2998 colon, above 100 µM in the assay on HCT-15 colon and above 75.3 µM in the assay with SNB-75 CNS.
Regarding `COc1ccc(CN2c3ccccc3Sc3ccccc32)cc1F`, the GI50 with LOX IMVI melanoma is 0.798 µM; in the assay with SK-MEL-5 melanoma it was 0.446 µM; with OVCAR-4 ovarian, 0.964 µM; with IGROV1 ovarian, 1.45 µM; in the assay on SK-MEL-2 melanoma it was 0.476 µM; in the assay on SF-539 CNS it was 0.316 µM. Besides, the GI50 is 0.365 µM with M14 melanoma, 1.11 µM with HCC-2998 colon, 0.435 µM in the assay on HCT-15 colon and 0.257 µM in the assay on SNB-75 CNS. Besides, the TGI with LOX IMVI melanoma was above 100 µM; in the assay on SK-MEL-5 melanoma, above 100 µM; in the assay with OVCAR-4 ovarian, above 100 µM; in the assay with IGROV1 ovarian, above 100 µM; in the assay on SK-MEL-2 melanoma it was above 100 µM; in the assay on SF-539 CNS it was 5.58 µM. The TGI with M14 melanoma was above 100 µM; with HCC-2998 colon it was above 35.8 µM; with HCT-15 colon, above 100 µM; in the assay on SNB-75 CNS, 98.8 µM.
Consider `CC1C2Cc3ccc(O)cc3C1(C)CCN2C` (stereo not given), for which the TGI with LOX IMVI melanoma, in the assay on SK-MEL-5 melanoma, in the assay with OVCAR-4 ovarian, in the assay on IGROV1 ovarian, with SK-MEL-2 melanoma and with SF-539 CNS was above 100 µM in each case. Moreover, the TGI with M14 melanoma, with HCC-2998 colon, in the assay on HCT-15 colon and in the assay with SNB-75 CNS was above 100 µM in each case.
Regarding `C=C1C(=O)OC2CCCCC3OC3C12` (stereo not given), the TGI stood at 31.9 µM in the assay with LOX IMVI melanoma; 19.5 µM in the assay with SK-MEL-5 melanoma; 28.7 µM with OVCAR-4 ovarian; 33.4 µM with IGROV1 ovarian; 27.5 µM with SK-MEL-2 melanoma; 28.1 µM in the assay on SF-539 CNS. For the same compound, the TGI in the assay with M14 melanoma came to 20.4 µM; in the assay on HCC-2998 colon, 23.9 µM; in the assay on HCT-15 colon, 19.9 µM; with SNB-75 CNS, 59.1 µM.
As to `CCN1CCC[C@H]1c1cc(O)c2c(c1OC)C[C@H]1C[C@H]3[C@H](N)C(=O)C(C(N)=O)=C(O)[C@@]3(O)C(=O)C1=C2O`, the GI50 was 0.0386 µM in the assay with LOX IMVI melanoma; 0.0797 µM in the assay with SK-MEL-5 melanoma; 0.0675 µM in the assay on OVCAR-4 ovarian; 0.0419 µM in the assay on IGROV1 ovarian; 0.0336 µM in the assay on SK-MEL-2 melanoma; 0.0634 µM in the assay with SF-539 CNS. In addition, the GI50 was 0.0492 µM with M14 melanoma, 0.118 µM with HCC-2998 colon, 0.0547 µM in the assay on HCT-15 colon and 0.0609 µM in the assay with SNB-75 CNS. The TGI stood at 1.23 µM with LOX IMVI melanoma; 0.951 µM with SK-MEL-5 melanoma; 2.73 µM in the assay with OVCAR-4 ovarian; 4.95 µM with IGROV1 ovarian; 0.158 µM with SK-MEL-2 melanoma; 0.593 µM with SF-539 CNS. For the same compound, the TGI in the assay with M14 melanoma worked out at 1.37 µM; in the assay with HCC-2998 colon, 3.01 µM; in the assay with HCT-15 colon, 5.17 µM; with SNB-75 CNS it was 1.58 µM.
For `Nc1ccc2c(c1)C(=O)c1ccc(F)cc1-2`, the TGI in the assay on LOX IMVI melanoma, in the assay with SK-MEL-5 melanoma, in the assay with OVCAR-4 ovarian, in the assay on IGROV1 ovarian, in the assay with SK-MEL-2 melanoma and with SF-539 CNS was above 100 µM each time. In addition, the TGI with M14 melanoma, in the assay with HCC-2998 colon, in the assay on HCT-15 colon and in the assay with SNB-75 CNS was above 100 µM each time.
As for `O=C(NCCCN1CCN(CCCNC(=O)c2cnc3ccccc3n2)CC1)c1cnc2ccccc2n1`, the TGI with LOX IMVI melanoma, in the assay on SK-MEL-5 melanoma, in the assay with OVCAR-4 ovarian, in the assay with IGROV1 ovarian, in the assay with SK-MEL-2 melanoma and with SF-539 CNS was above 100 µM each time. Moreover, the TGI in the assay with M14 melanoma, with HCC-2998 colon, in the assay with HCT-15 colon and in the assay on SNB-75 CNS was above 100 µM in each case.
